Experimental data published in PMC4671658, “Release of 50 new, drug-like compounds and their computational target predictions for open source anti-tubercular drug discovery” (PLoS ONE, 2015).
≈ marks a conversion by molar mass, not a printed value.

Columns and labels:
M. tuberculosis H37Rv = experiment: M. tuberculosis inhibition assay (MABA, resazurin) MIC; format: cell-based; conditions: Mycobacterium tuberculosis
M. bovis BCG Pasteur = experiment: microbe, parasite or virus in culture; format: cell-based, Mycobacterium bovis BCG; conditions: for IC50: Mycobacterium tuberculosis variant bovis BCG, BCG, read-out: BCG pIC50 (converted)
HepG2 cells = conditions: HepG2, 48 h
physchem [1] = conditions: pH 7.4, kinetic from dmso stock
physchem [2] = conditions: pH 7.4
[3] = system: non-replicating M. tuberculosis H37Rv; experiment: Activity against non-replicating Mycobacterium tuberculosis; conditions: non-replicating conditions; for ACT In NR % inhibition: active/inactive call, experiments with inh > 50%
[4] = system: M. tuberculosis H37Rv in infected THP1 cells; experiment: Intracellular assay (luciferase H37Rv in THP1 cells); format: cell-based, Mycobacterium tuberculosis; conditions: for IC50: Mycobacterium tuberculosis, H37RV, THP-1, 120 h, read-out: ACT In Intracellular pX50 (converted)

| SMILES | MIC (M. tuberculosis H37Rv) | IC50 (M. bovis BCG Pasteur) | TOX50 HepG2 (HepG2 cells) | solubility (physchem [1]) | chromatographic logD (physchem [2]) | ACT In NR pXC50 [3] | ACT In NR % inhibition [3] | IC50 [4] | Mtb specific (inactive against M. bovis BCG) (M. bovis BCG Pasteur; hit in Mtb screen, not in BCG screen) | Inhibition of intracellular growth (active = pIC50 above 5) ([4]; THP1 cells, the one compound of 26 tested that was not active) |
| --- | --- | --- | --- | --- | --- | --- | --- | --- | --- | --- |
| COc1ccc2nccc(NC(=O)C3CCN(CCc4ccc(Cl)cc4)CC3)c2n1 [TCMDC-143649] | 0.2 µM (≈ 0.085 µg/mL) | 5.01 µM | > 100 µM | 4 µg/mL (≈ 9.41 µM) | 5.49 | 5,1 | ACTIVE 7 expts out of 10 with inh > 50% |  |  |  |
| O=C(NCc1ccco1)N1CCN(Cc2ccc3c(c2)OCO3)CC1 [TCMDC-143650] | 1.25 µM (≈ 0.429 µg/mL) | 1.26 µM | > 100 µM | 86 µg/mL (≈ 250 µM) | 3.48 |  | INACTIVE |  |  |  |
| CCCC/C=C/c1cc2ccncc2cc1OC1CCNCC1 [TCMDC-143651] | 1.6 µM (≈ 0.497 µg/mL) | 2.51 µM | 16 µM | 36 µg/mL (≈ 116 µM) | 3.61 |  | INACTIVE | 1.26 µM |  |  |
| O=C(NCc1ccco1)N1CCN(Cc2ccc3c(c2)CCO3)CC1 [TCMDC-143652] | 2 µM (≈ 0.683 µg/mL) | 2.51 µM | > 100 µM | 88 µg/mL (≈ 258 µM) | 3.47 |  | INACTIVE |  |  |  |
| O=C(NCc1ccco1)N1CCN(Cc2ccc(Cl)s2)CC1 [TCMDC-143653] | 2 µM (≈ 0.68 µg/mL) | 1.26 µM | > 100 µM | 98 µg/mL (≈ 288 µM) | 4.82 |  | INACTIVE | 2.51 µM |  |  |
| Nc1ccccc1Nc1ccc(Cl)cc1 [TCMDC-143654] | 2 µM (≈ 0.437 µg/mL) | 0.1 µM | 79 µM | 59 µg/mL (≈ 270 µM) | 5.76 | 4,5 | ACTIVE 8 expts out of 11 with inh > 50% | 0.0158 µM |  |  |
| NCC(c1cccs1)S(=O)(=O)c1ccccc1 (centres unmarked) [TCMDC-143655] | 2 µM (≈ 0.535 µg/mL) | 5.01 µM | 32 µM | 134 µg/mL (≈ 501 µM) | 2.5 |  | INACTIVE |  |  |  |
| NS(=O)(=O)c1ccc(Nc2cnc3ccccc3n2)cc1 [TCMDC-143656] | 2 µM (≈ 0.601 µg/mL) | 6.31 µM | > 100 µM | 112 µg/mL (≈ 373 µM) | 1.07 |  | INACTIVE |  |  |  |
| CNc1nc(SC)nnc1-c1cccc(Cl)c1Cl [TCMDC-143661] | 2.5 µM (≈ 0.753 µg/mL) | 12.6 µM | > 100 µM | 85 µg/mL (≈ 282 µM) | 4.94 |  | INACTIVE | 0.794 µM | Mtb specific |  |
| Cc1ccc2oc(SCC(=O)Nc3nccs3)nc2n1 [TCMDC-143682] |  |  |  |  |  |  |  |  |  | all but one (TCMDC-143682) were active |
